Measured values taken from PMC9973354 (mBio, 2022).
Starred links: 1 amine or outer side, 2 acyl side, 3 side chain; linkers in the order of their positions; H or OH if unused. Positions of bridges follow the written chain, without caps; N, C: chain ends. Non-standard residues stand in square brackets, D forms with d. Residues, ends and D or L forms follow the SMILES beside them. ξ: configuration not given here. X1 = O=C([C@@H]1CCN=C2C(N[*:1])=Cc3cc(O)c(O)cc3N21)[*:2]; ξOrn(N(OH)CHO) = NC(CCCN(O)C=O)C(=O)O; Suc = O=C(CCC(=O)[*:2])[*:1]; ξK = NCCCCC(N)C(=O)O; ξS = NC(CO)C(=O)O

Legend:
PA14 = assay: Growth curves with DSX and siderophores, WT PA14; type: cell-based, Pseudomonas aeruginosa; settings: 20 h
Experimental: Supplementary file : FIG S1 (A) FpvB is expressed in WT PA14 and the ΔfpvA mutant grown in 10:90. PilF was used as a loading control for outer membrane proteins. (B) FpvA is expressed from WT PA14 grown in 10:90. […] PilF was used as a loading control for outer membrane proteins. (C) Growth curves of PA14 and mutants with DSX and different siderophores in 10:90. PA14, ΔfpvA, ΔfpvB, ΔfpvA ΔfpvB, and ΔpvdA ΔpchA strain growth. Blue indicates control, purple indicates treatment with 64 μg/mL DSX, yellow indicates treatment with 10 μg/mL pyoverdine (PA14), and red indicates treatment with 64 μg/mL DSX and 10 μg/mL pyoverdine (PA14). (D) ΔfpvA, ΔfpvA ΔfpvB, and ΔpvdA ΔpchA strain growth. Blue indicates control, purple indicates treatment with 64 μg/mL DSX, grey indicates treatment with 10 μg/mL ferrichrome, and red indicates treatment with 64 μg/mL DSX and 10 μg/mL ferrichrome. (E) ΔfpvA, ΔfpvA ΔfpvB, and ΔpvdA ΔpchA strain growth. […] Download FIG S1, EPS file, 8.5 MB.
Another explanation for the susceptibility of the ΔfpvA mutant to DSX is that the mutant produces less pyoverdine compared to WT cells due to loss of the signaling cascade that controls siderophore production in response to its binding to FpvA ([25]). To differentiate whether the fpvA mutant was susceptible to DSX because of reduced pyoverdine production or because FpvB was a poor pyoverdine transporter, we treated the WT, ΔfpvA, ΔfpvB, and ΔfpvA ΔfpvB strains with DSX (64 μg/mL) without and with exogenous pyoverdine (10 μg/mL) for 20 h (Fig. 1; see also Fig. S1C). Growth of the ΔfpvA mutant should be restored if there are functional pyoverdine transporters. […] The growth of the ΔfpvA ΔfpvB mutant was inhibited by DSX and pyoverdine, confirming previously published results ([18]).

FpvB R648C = molecular target: T1, FpvB R648C (Pseudomonas aeruginosa, UniProt A0A0H2ZFZ5, R648C); assay: Whole-cell fluorescence quenching, FpvB R648C in ΔfpvA ΔfpvB; type: binding
T1 sequence (A0A0H2ZFZ5 23-802 R648C): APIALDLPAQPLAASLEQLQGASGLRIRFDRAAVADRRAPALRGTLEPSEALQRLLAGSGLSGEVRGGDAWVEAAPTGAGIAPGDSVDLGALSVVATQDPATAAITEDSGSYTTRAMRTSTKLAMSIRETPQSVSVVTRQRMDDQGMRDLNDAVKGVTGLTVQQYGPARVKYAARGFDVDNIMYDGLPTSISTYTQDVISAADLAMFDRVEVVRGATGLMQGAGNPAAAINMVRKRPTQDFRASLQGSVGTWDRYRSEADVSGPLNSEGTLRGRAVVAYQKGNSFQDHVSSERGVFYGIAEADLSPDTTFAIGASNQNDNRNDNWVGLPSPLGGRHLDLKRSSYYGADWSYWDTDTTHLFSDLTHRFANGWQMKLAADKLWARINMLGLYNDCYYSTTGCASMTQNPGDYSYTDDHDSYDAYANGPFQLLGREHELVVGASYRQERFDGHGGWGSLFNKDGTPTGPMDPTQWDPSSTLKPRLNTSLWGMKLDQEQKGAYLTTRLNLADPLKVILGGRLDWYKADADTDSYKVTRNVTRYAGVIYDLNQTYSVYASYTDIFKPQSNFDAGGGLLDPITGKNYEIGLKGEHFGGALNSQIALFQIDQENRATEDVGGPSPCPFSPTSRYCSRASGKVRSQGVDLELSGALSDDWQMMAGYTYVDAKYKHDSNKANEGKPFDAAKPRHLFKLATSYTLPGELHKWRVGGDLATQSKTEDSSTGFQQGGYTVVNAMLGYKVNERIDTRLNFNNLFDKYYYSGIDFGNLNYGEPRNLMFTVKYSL
Source text: To determine the affinity of the siderophores for FpvA and FpvB, we adapted the method from Chakravorty et al. to generate a whole-cell sensor where fluorescence quenching serves as an indicator of ligand interaction ([31]). Siderophore binding triggers conformational changes at the extracellular loops of the TBDT (Fig. 3A). Cys substitutions were introduced at the loops and labeled with a fluorescent maleimide dye. When a ligand binds the transporter, the loops fold inward toward the lumen of the barrel, and changes in the chemical environment surrounding the fluorophore lead to quenching ([31], [32]). Fluorescence recovery occurs once the siderophore is taken up and the loop returns to its original conformation.
Cells were cultured overnight in LB with carbenicillin (200 μg/mL) at 37°C with shaking at 200 rpm. Cells were subcultured (1:200 dilution) in 10:90 plus 2% arabinose for 4 h without carbenicillin at 37°C with shaking at 200 rpm. […] Excess dye was quenched with 1 mM dithiothreitol (DTT) (Sigma) to stop the reaction. Cells were washed 3× with PBS. For fluorescence recovery assays, cells were incubated with 1× PBS plus 0.4% glucose at 37°C with shaking at 200 rpm. Glucose was prepared as a 20% stock (wt/vol) in 1× PBS and filter sterilized. Cells were spun down and washed 3× with 1× PBS and resuspended in 1× PBS for quenching assays and 1× PBS plus 0.4% glucose for fluorescence recovery assays.
For fluorescence quenching and recovery assays, cells were diluted to an OD600 of 0.1 for both types of assays, and 148 μL was added into wells of a 96-well black plate (Corning). Fluorescence was recorded for 5 min at 1-min intervals at 37°C (BioTek Neo; excitation, 494 nm; emission, 520 nm). After 5 min, 2 μL of each serial dilution for ferrioxamine-Fe^3+, ferrichrome-Fe^3+, and pyoverdine-Fe^3+ or DMSO for vehicle controls was added to each well. Fluorescence was recorded immediately for quenching assays and for 1 h at 1-min intervals for fluorescence recovery assays. Background fluorescence was subtracted from all fluorescence readings and 1-F/F0 was used to calculate the degree of quenching, where F0 is the initial fluorescence. Kd was calculated using GraphPad Prism using a one-site specific binding model or a two-site model. For fluorescence recovery assays, background was subtracted from all fluorescence readings and F/F0 expressed as a percent of control was plotted versus time.

[1] = tested on: PA14 ΔfpvA ΔfpvB ΔfiuA ΔfoxA quadruple mutant; assay: Growth phenotypes of deletion mutants, quadruple mutant; type: cell-based, Pseudomonas aeruginosa; settings: 64 μg/mL DSX, 10 μg/mL siderophores, 10:90
Source text: PA14, ΔfpvA, ΔfpvB, and ΔfpvA ΔfpvB strains treated with TS (A) and DSX (B) in 10:90. Green indicates growth, and white indicates no growth. Growth is expressed as percent of control. The PA14 ΔfpvA ΔfpvB strain complemented with pHERD20T, fpvA, or fpvB treated with TS (C) and DSX (D) in 10:90. […] All experiments are averaged from three independent biological replicates. Blue indicates growth and white indicates no growth. (H) Summary of growth phenotypes of WT PA14 and combinations of single, double, triple, and quadruple deletion mutants in fpvA, fpvB, fiuA, and foxA. […] Green indicates growth, whereas no growth is indicated in white. […] Representative plates are shown.
If there were no transporters for a particular siderophore, the mutant would fail to grow due to iron restriction.

Structure (SMILES) | growth with siderophore in the presence of DSX (PA14; 64 μg/mL DSX + 10 μg/mL pyoverdine) | growth versus control (PA14; DSX 64 μg/mL or pyoverdine 10 μg/mL alone, 10:90) | Kd for FpvB relative to ferrichrome (FpvB R648C; greater than ferrichrome) | Kd for FpvB relative to ferrioxamine B (FpvB R648C; greater than ferrioxamine B) | growth in the presence of compound [1]
NCCCCC(NC(=O)C(CO)NC(=O)[C@@H]1CCN=C2C(NC(=O)CCC(=O)O)=Cc3cc(O)c(O)cc3N21)C(=O)NCC(=O)NC(CCCN(O)C=O)C(=O)NC1CCCCNC(=O)C(CO)NC(=O)C(CCCN(O)C=O)NC1=O (some centres unmarked) [pyoverdine] (Suc-[X1][ξS][ξK]G[ξOrn(N(OH)CHO)][ξK][ξOrn(N(OH)CHO)][ξS]; lactam 6-C) | increased growth | increased growth | 200 fold | 20 fold | –
CC(=O)N(O)CCCCCNC(=O)CCC(=O)N(O)CCCCCNC(=O)CCC(=O)N(O)CCCCCN [ferrioxamine B] | – | – | – | – | failed to grow
